Laboratory results published in publication PMC11124362, “Metabolism, Disposition, Excretion, and Potential Transporter Inhibition of 7–16, an Improving 5-HT2A Receptor Antagonist and Inverse Agonist for Parkinson’s Disease” (Molecules, 2024).

What was measured:
P-gp = target: T1, P-gp (Homo sapiens, UniProt P08183); test: P-gp inhibitor assay in MDR1-MDCKII cells; format: in vitro ADME; settings: substrate Digoxin 10.0 µM, efflux ratio, read-out: Inhibition IC50, P-gp
T1 construct: expressed in transfected cells; host or cells: MDR1-MDCKII (Madin-Darby canine kidney cells)

OAT1 = target: T2, OAT1 (Homo sapiens, UniProt Q4U2R8); test: OAT1 inhibitor assay in HEK293 cells; format: in vitro ADME; settings: substrate p-Aminohippurate, read-out: Inhibition IC50, OAT1
T2 construct: host or cells: HEK293
T2 sequence (Q4U2R8 1-563): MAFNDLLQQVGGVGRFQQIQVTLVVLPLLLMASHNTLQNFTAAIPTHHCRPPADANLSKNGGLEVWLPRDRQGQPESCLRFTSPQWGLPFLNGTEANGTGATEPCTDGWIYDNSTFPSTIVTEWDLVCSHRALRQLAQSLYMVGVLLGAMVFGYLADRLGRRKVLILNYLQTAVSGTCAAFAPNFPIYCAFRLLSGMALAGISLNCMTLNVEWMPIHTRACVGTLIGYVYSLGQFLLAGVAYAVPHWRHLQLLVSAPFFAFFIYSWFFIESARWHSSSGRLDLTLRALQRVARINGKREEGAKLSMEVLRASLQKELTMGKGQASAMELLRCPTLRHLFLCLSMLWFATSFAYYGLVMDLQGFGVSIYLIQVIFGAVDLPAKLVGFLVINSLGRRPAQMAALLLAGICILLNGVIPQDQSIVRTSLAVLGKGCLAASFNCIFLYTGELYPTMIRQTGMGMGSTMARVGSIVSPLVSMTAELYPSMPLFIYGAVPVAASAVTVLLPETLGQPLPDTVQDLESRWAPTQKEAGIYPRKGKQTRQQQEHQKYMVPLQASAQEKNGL

CYP2D6 = test system: CYP2D6; set-up: method as in PMID 35279606; settings: previous study; read-out: CYP2D6 inhibition IC50; cited from earlier work

T1 sequence (P08183 whole entry): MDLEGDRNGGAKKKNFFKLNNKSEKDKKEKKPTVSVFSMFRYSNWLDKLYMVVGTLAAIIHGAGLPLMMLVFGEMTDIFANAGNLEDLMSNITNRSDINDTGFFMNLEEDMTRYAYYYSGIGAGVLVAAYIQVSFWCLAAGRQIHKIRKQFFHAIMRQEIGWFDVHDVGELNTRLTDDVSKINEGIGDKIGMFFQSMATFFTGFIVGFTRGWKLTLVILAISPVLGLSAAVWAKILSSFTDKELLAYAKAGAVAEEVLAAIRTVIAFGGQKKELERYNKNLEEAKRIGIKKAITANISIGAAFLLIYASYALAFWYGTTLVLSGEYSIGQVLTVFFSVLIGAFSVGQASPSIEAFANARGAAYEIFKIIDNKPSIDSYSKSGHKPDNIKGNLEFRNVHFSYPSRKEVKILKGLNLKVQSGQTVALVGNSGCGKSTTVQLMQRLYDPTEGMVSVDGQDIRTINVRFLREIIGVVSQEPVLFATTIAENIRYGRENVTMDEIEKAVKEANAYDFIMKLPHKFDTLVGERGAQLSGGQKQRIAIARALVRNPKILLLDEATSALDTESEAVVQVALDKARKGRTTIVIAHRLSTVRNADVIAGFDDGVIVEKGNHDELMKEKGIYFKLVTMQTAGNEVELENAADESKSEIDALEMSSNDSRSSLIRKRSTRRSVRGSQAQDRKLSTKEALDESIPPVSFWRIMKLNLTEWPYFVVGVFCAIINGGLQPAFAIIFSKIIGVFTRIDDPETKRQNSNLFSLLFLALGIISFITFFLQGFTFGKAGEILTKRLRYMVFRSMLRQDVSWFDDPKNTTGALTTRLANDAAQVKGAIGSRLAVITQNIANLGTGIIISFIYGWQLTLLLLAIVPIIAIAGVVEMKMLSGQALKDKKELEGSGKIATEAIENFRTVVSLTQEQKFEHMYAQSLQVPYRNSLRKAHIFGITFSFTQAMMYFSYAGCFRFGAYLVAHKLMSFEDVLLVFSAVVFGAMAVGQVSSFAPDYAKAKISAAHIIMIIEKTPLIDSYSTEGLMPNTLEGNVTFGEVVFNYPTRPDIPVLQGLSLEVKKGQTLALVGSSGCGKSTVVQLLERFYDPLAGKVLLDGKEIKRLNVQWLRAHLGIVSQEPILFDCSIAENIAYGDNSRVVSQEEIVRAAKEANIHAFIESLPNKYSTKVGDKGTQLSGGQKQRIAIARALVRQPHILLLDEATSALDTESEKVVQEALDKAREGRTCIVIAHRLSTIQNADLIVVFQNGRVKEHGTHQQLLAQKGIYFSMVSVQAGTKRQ

Structure (SMILES): CN1CCC(N(Cc2ccc(F)cn2)C(=O)NCc2ccc(OCC(F)(F)F)cc2)CC1 [7–16, 3-(4-(2,2,2-trifluoroethoxy)benzyl)-1-((5-fluoropyridin-2-yl)methyl)-1-(1-methylpiperidin-4-yl) urea]
- IC50 (P-gp): 30.6 µM
- IC50 (OAT1): > 100 µM
- IC50 (CYP2D6): > 62.9 µM
